Test results taken from ChEMBL document CHEMBL1141643, “Synthesis and SAR of novel 1,1-dialkyl-2(1H)-naphthalenones as potent HCV polymerase inhibitors” (Bioorg Med Chem Lett, 2008).

Assays:
[1] = Inhibition of HCV 1a RNA dependent RNA polymerase; set-up: species or system Hepacivirus hominis
Hepatitis C virus = assay: Inhibition of HCV 1a replication by cell based assay; type: functional, organism-based, Hepacivirus hominis

IC50 [1] | EC50 (Hepatitis C virus) | SMILES
13 nM | 121 nM | CC1(CC2CCCCC2)C(=O)C(C2=NS(=O)(=O)c3cc(NS(C)(=O)=O)ccc3N2)=C(O)c2ccccc21 (stereo not given)
138 nM |  | CC(C)(C)CCCCC1(C)C(=O)C(C2=NS(=O)(=O)c3cc(NS(C)(=O)=O)ccc3N2)=C(O)c2ccccc21 (stereo not given)
99 nM | 603 nM | CCCC1(CCC)C(=O)C(C2=NS(=O)(=O)c3cc(NS(C)(=O)=O)ccc3N2)=C(O)c2ccccc21
7 nM | 38 nM | CC(C)CCC1(C)C(=O)C(C2=NS(=O)(=O)c3cc(NS(C)(=O)=O)ccc3N2)=C(O)c2ccccc21 (stereo not given)
20 nM |  | CCCC1(C)C(=O)C(C2=NS(=O)(=O)c3cc(NS(C)(=O)=O)ccc3N2)=C(O)c2ccccc21 (stereo not given)
791 nM |  | CC1(CCCC2CCCCC2)C(=O)C(C2=NS(=O)(=O)c3cc(NS(C)(=O)=O)ccc3N2)=C(O)c2ccccc21 (stereo not given)
10 nM | 8 nM | CC(C)(C)CCC1(C)C(=O)C(C2=NS(=O)(=O)c3cc(NS(C)(=O)=O)ccc3N2)=C(O)c2ccccc21 (stereo not given)
15 nM | 52 nM | CCCCC1(C)C(=O)C(C2=NS(=O)(=O)c3cc(NS(C)(=O)=O)ccc3N2)=C(O)c2ccccc21 (stereo not given)
17 nM | 49 nM | CCC1(CCC(C)C)C(=O)C(C2=NS(=O)(=O)c3cc(NS(C)(=O)=O)ccc3N2)=C(O)c2ccccc21 (stereo not given)
